Laboratory results reported in patent US20130302909A1, “ASSESSMENT OF IGF-1 LEVELS IN HIV-INFECTED SUBJECTS AND USES THEREOF” (THERATECHNOLOGIES INC., priority 2011, published 2013).
*: point of attachment. Hexenoyl(3E) = CC/C=C/CC(=O)*

Columns and labels:
serum IGF-1 [1] = assay: Serum IGF-1 SDS in HIV patients treated with ThGRF, combined phase 3 studies, extension phase (LIPO-010 Extension/CTR-1012); format: in vivo, human; settings: for SDS >2 (%) / SDS >3 (%): HIV+ male normative ranges, percent of patients
Text: (§1) The IGF-1 normative ranges were derived from two phase 3 clinical studies of treatment with the GRF analog (hexenoyl trans-3)hGRF(1-44)NH2 (also referred to herein as “ThGRF” or “TH9507”). One phase 3 clinical study includes a main phase (6 months) and an extension phase (6 months) in one study (Lipo-010) and the second phase 3 clinical study includes two studies. CTR-1011 was the main phase (first 6 months) and CTR-1012 was the extension phase (last 6 months).
(§2) The IGF-1 data at baseline of all male patients from studies Lipo-010 and CTR-1011 were combined. Loge transformation was applied. […] The level of IGF-1 in the serum samples was determined using a blocking RIA assay. The IGF-1 blocking RIA assay is a competitive binding radioimmunoassay. It utilizes rabbit polyclonal antisera specific for IGF-1 as the primary antibody and radioiodinated recombinant human IGF-1 as tracer. Serum IGF-1 is first separated from binding proteins by acid ethanol extraction. The extracts (controls and unknown/test samples) and standard are incubated with primary antibody and tracer. Free IGF-1 present in the extracts competes with and displaces the tracer from primary antibody. A second antibody specific for rabbit immunoglobulin is added to precipitate the immunocomplexes, which are then separated from free reactants by centrifugation. The amount of radioactivity present in the precipitated immunocomplex is measured with a gamma counter and is inversely related to the concentration of IGF-1 present in the sample. The amount of tracer bound to the immunocomplexes formed in the calibrator samples (purified recombinant human IGF-1) is used to establish a dose response standard curve from which the IGF-1 concentration of controls and unknown samples are back calculated.
(§3) During clinical studies of the treatment of HIV subjects with ThGRF, initial analyses of IGF-I values of the HIV subjects was performed using a typical IGF-I determination, in which age- and gender-specific means and SD values were utilized for the calculation of the standard deviation scores (SDS). These values were derived from a relatively small cohort of healthy adults and were established assuming a Normal distribution (without any transformation of the measured IGF-1 values). As such, determination of the normative IGF-1 range was initially performed based on age- and gender-matched healthy (i.e., non-HIV) subjects, without any transformation of the measured raw IGF-1 values, referred to herein below as the “typical method” or “typical approach”.
(§4) The IGF-1 SDS were recalculated based on the means and standard deviations calculated from HIV patients (from all male patients in the above-noted clinical studies at baseline per age group as presented in Table III above, assuming a Normal distribution). The results are presented in Table IV for the main phase and the extension phase.
(§5) The calculations above (based on “healthy”, typical normative ranges or using normative ranges based on IGF-1 levels in HIV subjects) were all done assuming a Normal distribution of the IGF-1 levels. However, it was noted that the distribution of the IGF-1 levels at baseline for the patients in the phase 3 clinical studies is “Lognormal” rather than “Normal”. Thus, the means and standard deviations were recalculated using the natural log(loge or In) of IGF-1 and then calculated IGF-1 SDS using the lognormal scale, i.e. [(natural log IGF-1) minus (mean) divided by (standard deviation)]. The results using lognormal distributions are presented in Table V for the main phase and the extension phase. Importantly, the percent of patients at baseline and those treated with placebo is now much closer to expected and in addition, the % of ThGRF-treated patients being larger than +2 and +3 SDS using the lognormal distribution and the HIV population normative ranges are substantially lower than that seen using the uncorrected SDS calculators.

serum IGF-1 [2] = assay: Serum IGF-1 level and IGF-1 SDS in HIV patients treated with ThGRF, combined phase 3 studies, main phase (LIPO-010 Main/CTR-1011); format: in vivo, human; settings: Week 26; for SDS >2 (%) / SDS >3 (%): HIV+ male normative ranges
Text: as §1, §2, §3, §4, §5

[3] = Week 27, T-P group, Log-Normal distribution
[4] = Week 27, T-P group, Normal distribution
[5] = Week 27, T-T group, Log-Normal distribution
[6] = Week 27, T-T group, Normal distribution
[7] = Week 52, T-P group, Log-Normal distribution
[8] = Week 52, T-P group, Normal distribution
[9] = Week 52, T-T group, Log-Normal distribution
[10] = Week 52, T-T group, Normal distribution
[11] = Week 52, typical approach and healthy normative ranges
[12] = 2 mg/day, Log-Normal distribution, percent of patients
[13] = 2 mg/day, Normal distribution, percent of patients
[14] = 2 mg/day, typical approach, percent of patients

(hexenoyl trans-3)hGRF(1-44)NH2 ({Hexenoyl(3E)}-YADAIFTNSYRKVLGQLSARKLLQDIMSRQQGESNQERGARARL-NH2) [ThGRF]
SDS >2 (%) (serum IGF-1 [1]; [3]): 28.8%
SDS >3 (%) (serum IGF-1 [1]; [3]): 5.3%
SDS >2 (%) (serum IGF-1 [1]; [4]): 40.2%
SDS >3 (%) (serum IGF-1 [1]; [4]): 21.2%
SDS >2 (%) (serum IGF-1 [1]; [5]): 32.6%
SDS >3 (%) (serum IGF-1 [1]; [5]): 7.6%
SDS >2 (%) (serum IGF-1 [1]; [6]): 44.5%
SDS >3 (%) (serum IGF-1 [1]; [6]): 29.2%
SDS >2 (%) (serum IGF-1 [1]; [7]): 0.0%
SDS >3 (%) (serum IGF-1 [1]; [7]): 0.0%
SDS >2 (%) (serum IGF-1 [1]; [8]): 1.1%
SDS >3 (%) (serum IGF-1 [1]; [8]): 0.0%
SDS >2 (%) (serum IGF-1 [1]; [9]): 19.5%
SDS >3 (%) (serum IGF-1 [1]; [9]): 5.8%
SDS >2 (%) (serum IGF-1 [1]; [10]): 27.9%
SDS >3 (%) (serum IGF-1 [1]; [10]): 16.3%
ThGRF-treated patients larger than +2 SDS (serum IGF-1 [1]; [11]): 33.7%
ThGRF-treated patients larger than +3 SDS (serum IGF-1 [1]; [11]): 22.6%
SDS >2 (%) (serum IGF-1 [2]; [12]): 30.1%
SDS >3 (%) (serum IGF-1 [2]; [12]): 7.4%
SDS >2 (%) (serum IGF-1 [2]; [13]): 41.2%
SDS >3 (%) (serum IGF-1 [2]; [13]): 25.4%
IGF-1 SDS Mean (SD) (serum IGF-1 [2]; 2 mg/day, typical approach (healthy normative ranges, Normal distribution)): 2.4 (2.85)
SDS >+2 (%) (serum IGF-1 [2]; [14]): 47.4%
SDS >+3 (%) (serum IGF-1 [2]; [14]): 35.6%
IGF-1 level Mean (SD) (serum IGF-1 [2]; ThGRF 2 mg/day): 262 (123.6) ng/ml
